Measurements: patent publication US9029531B2 (Agios Pharmaceuticals, Inc., priority 2012, dated 2015)

What follows are molecules tested against T1, glutaminase (GAC) (Homo sapiens, UniProt O94925) (assay: Glutaminase coupled endpoint enzymatic assay (Example A)). Conditions: inhibition of glutaminase; assay of Example A or Example B.
T1 sequence (O94925 55-598 isoform O94925-3 limits assumed): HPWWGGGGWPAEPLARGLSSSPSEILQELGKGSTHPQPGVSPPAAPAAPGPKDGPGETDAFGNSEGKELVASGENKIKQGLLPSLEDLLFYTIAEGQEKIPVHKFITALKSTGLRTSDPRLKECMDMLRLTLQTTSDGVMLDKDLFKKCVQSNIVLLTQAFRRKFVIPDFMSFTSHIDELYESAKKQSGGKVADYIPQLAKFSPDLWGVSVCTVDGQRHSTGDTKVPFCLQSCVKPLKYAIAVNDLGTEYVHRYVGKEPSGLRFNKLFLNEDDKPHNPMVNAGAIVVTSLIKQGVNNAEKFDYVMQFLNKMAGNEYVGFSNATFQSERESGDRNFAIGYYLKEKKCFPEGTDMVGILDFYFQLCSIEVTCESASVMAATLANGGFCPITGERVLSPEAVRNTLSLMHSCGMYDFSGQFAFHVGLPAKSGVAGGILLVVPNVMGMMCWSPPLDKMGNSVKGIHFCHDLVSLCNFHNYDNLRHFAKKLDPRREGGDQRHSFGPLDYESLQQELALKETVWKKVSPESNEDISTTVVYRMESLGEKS
Assay type: biochemical
From the text: In certain embodiments, exemplary compounds of Formula I include the compounds described in Table 1 and in the Examples. A compound described herein may be tested for its ability to inhibit glutaminase, e.g., by an assay as described in the Examples. For simplicity, the inhibition activity of these compounds is represented as an IC50 tested in an assay of Example A or Example B in Table 1. […] “N/A” refers to compounds wherein the IC50 is unavailable.
In this example, the enzymatic activity of glutaminase is measured through a coupled endpoint assay. Glutamine and phosphate are supplied to GAC at a concentration equal to Km and AC50, respectively, and GAC concentration is adjusted to give a linear reaction for 60 minutes. The glutamate produced is converted to 2-OG by a kinetic excess of glutamate dehydrogenase. This second step is configured for 2×Km for NAD, since excess NAD is inhibitory. However, a kinetic excess of the third coupling enzyme, diaphorase, recycles NAD from NADH to keep the NAD concentration constant during the timecourse of the assay. Diaphorase, also supplied in kinetic excess, oxidizes NADH produced by GDH back to NAD with the concomitant reduction of rezasurin to the highly fluorescent resorufin. Resorufin in measured after the assay is stopped with SDS by Ex544/Em590. A reduction in the signal indicates inhibition of some component of the coupled enzyme system. Prospective hits are counterscreened against GDH/diaphorase alone to remove hits to the coupling enzyme system in a second assay.
2. Buffers • 2× Buffer (300 mM NaCl, 100 mM HEPES pH 8.5, 0.1% BSA, 0.5 mM EDTA, 100 mM sodium phosphate pH 8.5) • 5× Substrate Mix (1× Buffer final concentration, with 13 mM glutamine, 100 μM resazurin, 50 μg/ml diaphorase) • 1.2× Enzyme Mix (1× Buffer final concentration, with 0.875 μg/ml GAC, 1.56 mM NAD, 6.25 units/ml GDH) • Stop Mix (6% SDS in ddH2O) Reaction Procedure • 1. Add 1 μl compound in 100% DMSO • 2. Add 40 μl of Enzyme Mix and incubate for 60 minute at room temperature • 3. Add 10 μl of Substrate Mix to start reaction • 4. Stop reaction with 25 μl of 6% SDS and read Ex544 Em 590
`O=C(Cc1ccccc1)Nc1nnc(C[C@H]2C[C@@H]2Cc2nnc(NC(=O)Cc3ccccc3)s2)s1` (racemic) [Compound 1, N,N′-(5,5′-(trans-cyclopropane-1,2-diylbis(methylene))bis(1,3,4-thiadiazole-5,2-diyl))bis(2-phenylacetamide)] was tested, and the IC50 was 0.1 to 0.5 µM.
`O=C(Cc1ccccn1)Nc1nnc(C[C@H]2C[C@@H]2Cc2nnc(NC(=O)Cc3ccccn3)s2)s1` (racemic) [Compound 3, N,N′-(5,5′-(trans-cyclopropane-1,2-diylbis(methylene))bis(1,3,4-thiadiazole-5,2-diyl))bis(2-(pyridin-2-yl)acetamide)] was tested, and the IC50 was 0.5 to 1 µM.
Molecule `O=C(Cc1cccnc1)Nc1nnc(C[C@H]2C[C@@H]2Cc2nnc(NC(=O)Cc3cccnc3)s2)s1` (racemic) [Compound 5, N,N′-(5,5′-(trans-cyclopropane-1,2-diylbis(methylene))bis(1,3,4-thiadiazole-5,2-diyl))bis(2-(pyridin-3-yl)acetamide)] has an IC50 of 0.1 to 0.5 µM.
With `O=C(Cc1cccs1)Nc1nnc(C[C@H]2C[C@@H]2Cc2nnc(NC(=O)Cc3cccs3)s2)s1` (racemic) [Compound 6, N,N′-(5,5′-(trans-cyclopropane-1,2-diylbis(methylene))bis(1,3,4-thiadiazole-5,2-diyl))bis(2-(thiophen-2-yl)acetamide)] the IC50 was 0.1 to 0.5 µM.
With `COc1cccnc1CC(=O)Nc1nnc([C@H]2CCC[C@H](c3nnc(NC(=O)Cc4ncccc4OC)s3)C2)s1` (racemic) [Compound 116] the IC50 was less than 0.1 µM.
With `COc1ccc(CC(=O)Nc2nnc([C@@H]3CCC[C@@H](c4nnc(NC(=O)Cc5ccc(OC)cc5)s4)C3)s2)cc1` (stereo in doubt) [Compound 52, N,N′-(5,5′-((1S,3S)-cyclohexane-1,3-diyl)bis(1,3,4-thiadiazole-5,2-diyl))bis(2-(4-methoxyphenyl)acetamide)] the IC50 was less than 0.1 µM.
`O=C(Cc1ccccn1)Nc1nnc(CC2CCC(Cc3nnc(NC(=O)Cc4ccccn4)s3)C2)s1` (centres unmarked) [Compound 4, N,N′-(5,5′-(cyclopentane-1,3-diylbis(methylene))bis(1,3,4-thiadiazole-5,2-diyl))bis(2-(pyridin-2-yl)acetamide)] gave an IC50 of 2 to 10 µM.
Molecule `O=C(Cc1ccccn1)Nc1nnc(CC2CC(Cc3nnc(NC(=O)Cc4ccccn4)s3)C2)s1` (centres unmarked) [Compound 7, N,N′-(5,5′-(cyclobutane-1,3-diylbis(methylene))bis(1,3,4-thiadiazole-5,2-diyl))bis(2-(pyridin-2-yl)acetamide)] has an IC50 of 2 to 10 µM.
Molecule `O=C(Cc1ccccc1)Nc1nnc(CC2CC(Cc3nnc(NC(=O)Cc4ccccc4)s3)C2)s1` (centres unmarked) [Compound 8, N,N′-(5,5′-(cyclobutane-1,3-diylbis(methylene))bis(1,3,4-thiadiazole-5,2-diyl))bis(2-phenylacetamide)] has an IC50 of 0.1 to 0.5 µM.
Work on `O=C(Cc1ccccc1)Nc1nnc([C@H]2CCC[C@H](c3nnc(NC(=O)Cc4ccccc4)s3)C2)s1` [Compound 9, N,N′-(5,5′-((1S,3S)-cyclohexane-1,3-diyl)bis(1,3,4-thiadiazole-5,2-diyl))bis(2-phenylacetamide)] yielded an IC50 of less than 0.1 µM.
In the case of `O=C(Cc1ccccc1)Nc1nnc([C@@H]2CCC[C@H](c3nnc(NC(=O)Cc4ccccc4)s3)C2)s1` [Compound 10, N,N′-(5,5′-((1R,3S)-cyclohexane-1,3-diyl)bis(1,3,4-thiadiazole-5,2-diyl))bis(2-phenylacetamide)], the IC50 is reported as 1 to 2 µM.
For `O=C(Cc1ccccc1)Nc1nnc([C@@H]2CCC[C@@H](c3nnc(NC(=O)Cc4ccccc4)s3)C2)s1` [Compound 11, N,N′-(5,5′-((1R,3R)-cyclohexane-1,3-diyl)bis(1,3,4-thiadiazole-5,2-diyl))bis(2-phenylacetamide)], the IC50 was less than 0.1 µM.
For `CC(=O)Nc1nnc([C@H]2CCC[C@H](c3nnc(NC(C)=O)s3)C2)s1` [Compound 12, N,N′-(5,5′-((1S,3S)-cyclohexane-1,3-diyl)bis(1,3,4-thiadiazole-5,2-diyl))diacetamide], the IC50 was 0.5 to 1 µM.
With `CC(=O)Nc1nnc([C@@H]2CCC[C@@H](c3nnc(NC(=O)Cc4cn(C)c5ccccc45)s3)C2)s1` [Compound 13] the IC50 was 0.1 to 0.5 µM.
For `Cn1cc(CC(=O)Nc2nnc([C@@H]3CCC[C@H](c4nnc(NC(=O)Cc5cn(C)c6ccccc56)s4)C3)s2)c2ccccc21` [Compound 15, N,N′-(5,5′-((1R,3S)-cyclohexane-1,3-diyl)bis(1,3,4-thiadiazole-5,2-diyl))bis(2-(1-methyl-1H-indol-3-yl)acetamide)], the IC50 was 0.5 to 1 µM.
Molecule `Cn1cc(CC(=O)Nc2nnc([C@H]3CCC[C@H](c4nnc(NC(=O)Cc5cn(C)c6ccccc56)s4)C3)s2)c2ccccc21` [Compound 16, N,N′-(5,5′-((1S,3S)-cyclohexane-1,3-diyl)bis(1,3,4-thiadiazole-5,2-diyl))bis(2-(1-methyl-1H-indol-3-yl)acetamide)] has an IC50 of 0.1 to 0.5 µM.
With `O=C(Cc1ccccc1)Nc1nnc([C@@H]2CC[C@H](c3nnc(NC(=O)Cc4ccccc4)s3)C2)s1` [Compound 18, N,N′-(5,5′-((1R,3S)-cyclopentane-1,3-diyl)bis(1,3,4-thiadiazole-5,2-diyl))bis(2-phenylacetamide)] the IC50 was 1 to 2 µM.
In the case of `O=C(Cc1ccccc1)Nc1nnc([C@@H]2CC[C@@H](c3nnc(NC(=O)Cc4ccccc4)s3)C2)s1` [Compound 19, N,N′-(5,5′-((1R,3R)-cyclopentane-1,3-diyl)bis(1,3,4-thiadiazole-5,2-diyl))bis(2-phenylacetamide)], the IC50 is reported as 0.1 to 0.5 µM.
`O=C(Cc1ccccn1)Nc1nnc([C@@H]2CCC[C@H](c3nnc(NC(=O)Cc4ccccn4)s3)C2)s1` [Compound 20, N,N′-(5,5′-((1R,3S)-cyclohexane-1,3-diyl)bis(1,3,4-thiadiazole-5,2-diyl))bis(2-(pyridin-2-yl)acetamide)] was tested, and the IC50 was 1 to 2 µM.
`O=C(Cc1c[nH]c2ccccc12)Nc1nnc([C@H]2CCC[C@H](c3nnc(NC(=O)Cc4c[nH]c5ccccc45)s3)C2)s1` [Compound 22] gave an IC50 of less than 0.1 µM.
For `O=C(Cc1c[nH]c2ccccc12)Nc1nnc([C@@H]2CCC[C@H](c3nnc(NC(=O)Cc4c[nH]c5ccccc45)s3)C2)s1` [Compound 23, N,N′-(5,5′-((1S,3R)-cyclohexane-1,3-diyl)bis(1,3,4-thiadiazole-5,2-diyl))bis(2-(1H-indol-3-yl)acetamide)], the IC50 was 0.1 to 0.5 µM.
Molecule `O=C(Cc1cccc2[nH]ccc12)Nc1nnc([C@H]2CCC[C@H](c3nnc(NC(=O)Cc4cccc5[nH]ccc45)s3)C2)s1` [Compound 24, N,N′-(5,5′-((1S,3S)-cyclohexane-1,3-diyl)Obis(1,3,4-thiadiazole-5,2-diyl))bis(2-(1H-indol-4-yl)acetamide)] has an IC50 of less than 0.1 µM.
In the case of `O=C(Cc1cccc2[nH]ccc12)Nc1nnc([C@@H]2CCC[C@H](c3nnc(NC(=O)Cc4cccc5[nH]ccc45)s3)C2)s1` [Compound 25, N,N′-(5,5′-((1S,3R)-cyclohexane-1,3-diyl)bis(1,3,4-thiadiazole-5,2-diyl))bis(2-(1H-indol-4-yl)acetamide)], the IC50 is reported as 0.5 to 1 µM.
For `CC(=O)Nc1nnc([C@@H]2CCC[C@@H](c3nnc(NC(=O)Cc4ccccn4)s3)C2)s1` [Compound 26], the IC50 was 0.1 to 0.5 µM.
`O=C(Cc1ccccn1)Nc1nnc([C@@H]2CC[C@H](c3nnc(NC(=O)Cc4ccccn4)s3)C2)s1` [Compound 32] gave an IC50 of 0.5 to 1 µM.
`O=C(Cc1ccccn1)Nc1nnc([C@@H]2CC[C@@H](c3nnc(NC(=O)Cc4ccccn4)s3)C2)s1` [Compound 33] was tested, and the IC50 was less than 0.1 µM.
With `O=C(Cc1ccccc1)Nc1nnc(C2CCCC(c3nnc(NC(=O)Cc4ccccc4)s3)C2)s1` (centres unmarked) [Compound 36] the IC50 was 1 to 2 µM.
Work on `CC(C)C(=O)Nc1nnc([C@@H]2CCC[C@@H](c3nnc(NC(=O)C(C)C)s3)C2)s1` [Compound 38] yielded an IC50 of 0.1 to 0.5 µM.
For `Nc1ccccc1CC(=O)Nc1nnc([C@H]2CCC[C@H](c3nnc(NC(=O)Cc4ccccc4N)s3)C2)s1` [Compound 56, N,N′-(5,5′-((1S,3S)-cyclohexane-1,3-diyl)bis(1,3,4-thiadiazole-5,2-diyl))bis(2-(2-aminophenyl)acetamide)], the IC50 was less than 0.1 µM.
